Source: patent US20240156764A1, “INHIBITION OF URACIL DNA GLYCOSYLASE IN THE OPEN CONFORMATION” (CASE WESTERN RESERVE UNIVERSITY, priority 2022, published 2024)
Where “and” joins values, the source holds several entries; their conditions need not be identical. Identical values can stand only once.

Columns and labels:
Format in all cases: biochemical
human UDG [1] = molecular target: T1, human UDG (Homo sapiens, UniProt P13051); test: Time course of human UDG activity on uracil DNA hairpin; set-up: Bacterially expressed and purified full-length human UDG; made in house
Excerpt: RFU was monitored over time. Each point on plot represents an average of three replicates. Error bar represents standard deviation from the mean. […] Each data point on the plot is the average of 3 wells (DMSO condition). Error bars represent standard deviation from the mean. […] UDG protein was not added to each reaction. […] Fluorescently labeled FAM-uDNA hairpin was monitored over the melting of the DNA hairpin. […] Each point represents an average of 4 experimental wells. Y Error bars represent the standard deviation from the mean.
To better examine UDG inhibitor activity, we monitored human UDG activity over time.
Target sequence in this assay (P13051 whole entry): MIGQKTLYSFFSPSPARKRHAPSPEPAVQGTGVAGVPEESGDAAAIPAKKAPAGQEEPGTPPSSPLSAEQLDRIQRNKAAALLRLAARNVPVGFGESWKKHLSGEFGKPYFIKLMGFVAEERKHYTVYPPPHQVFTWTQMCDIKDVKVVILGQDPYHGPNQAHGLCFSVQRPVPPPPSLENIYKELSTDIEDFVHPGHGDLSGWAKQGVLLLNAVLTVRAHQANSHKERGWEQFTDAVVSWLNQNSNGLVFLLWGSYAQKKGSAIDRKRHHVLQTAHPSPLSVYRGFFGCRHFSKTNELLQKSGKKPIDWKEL

human UDG [2] = molecular target: T1, human UDG; test: Gel-based DNA cleavage assay with a single U:A basepair; set-up: 6xHis; purchased XTAL Biostructures; host or cells: Sf9 insect cells
Procedure: 20% polyacrylamide nucleic acid urea gel electrophoresis was used to resolve the DNA bands at room temperature, 200 v for 50 min. Analysis and quantification of DNA cleavage were done as follows. A background subtraction step was included using the 23mer from the DNA only lane. […] A single oxo-guanine: cytosine base pair DNA with a Cy3 fluorescent tag on the 3′ end was used (10 nM).
Following pre-incubation occurred for 20 min at 37° C., 2 μL of U:A DNA (500 nM stock) was added to initiate the reaction, total reaction volume of 50 μL/well. Each plate was incubated for 120 min at 37° C. Then, each 96 well plate was sealed and heated at a constant temperature of 95° C. for 55 min using the CFX96 real time system thermocycler. After the heating process, 5 μL of a bromophenol blue denaturing loading dye (20milligrams of bromophenol blue, 9.7 ml of formamide plus 300 μL of 10M NaOH) was added to each reaction well. […] TBE buffer was prepared by dissolving 54 grams of tris base, 28 grams of boric acid, and 4.5 grams of EDTA in 1.0 liter of distilled H2O. Gels were processed at 200V for 60 min in the dark. Gels were imaged based on the fluorescent tags using Typhoon Trio+Variable Mode Imager (Amersham Biosciences) with excitation and emission wavelengths set to 532 nm and 585 nm respectively, photomultiplier tube voltage (PMT) was set to 400V, and pixel size resolution set to 100 μm. Gel data were analyzed using ImageJ software. DNA bands were corrected using a background subtraction step. Percent cleavage was calculated by using fluorescence intensity of the cleaved 23-mer DNA strand divided by the sum of the fluorescence bands (23mer+40mer DNA strands)*100. Relative percent cleavage was generated by using the untreated DMSO condition divided by each treated drug dose*100.
Target sequence in this assay (P13051 1-304 isoform P13051-2): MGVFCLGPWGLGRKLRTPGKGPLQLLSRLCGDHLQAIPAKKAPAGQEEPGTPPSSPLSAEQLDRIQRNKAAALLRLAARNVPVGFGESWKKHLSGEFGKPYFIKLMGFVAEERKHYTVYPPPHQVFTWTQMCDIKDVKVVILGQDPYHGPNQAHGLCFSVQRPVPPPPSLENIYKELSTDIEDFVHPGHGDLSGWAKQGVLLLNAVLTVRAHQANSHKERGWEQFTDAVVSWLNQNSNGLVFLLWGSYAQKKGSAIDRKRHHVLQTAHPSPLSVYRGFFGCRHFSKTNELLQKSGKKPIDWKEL

human UDG [3] = molecular target: T1, human UDG; test: High-throughput screening assay: UDG-mediated unquenching of fluorescent uracil DNA hairpin; set-up: 6xHis; purchased XTAL Biostructures; host or cells: Sf9 insect cells; settings: purified human UDG, initial value, read-out: IC50 for the purified human UDG (un-quenching of fluorescence from the DNA hairpin)
Procedure: FIGS. 1(A-D) illustrate high-Throughput Small-Molecule Screening for UDG Inhibitors. A: 60 min reaction time-course experiment was performed to measure human UDG enzymatic activity in the presence of 10 nM UDG (red line) or absence of UDG (black line) uracil DNA hairpin (25 nM) only control. Each data point is the average of 12 reaction replicates from a 384-well plate. Error bars represent the standard deviation from the mean. B: Two independent screens using a plate of 320 compounds were plotted on the same graph with the trend line showing a positive correlation between the two runs with an R2 value of 0.711 using y=mx+b. […] Normalized percent activity of UDG-mediated unquenching of fluorescence DNA hairpin is shown. […] Control condition denotes RFU-UDG AVG (DNA alone no protein); the average relative fluorescence unit (RFU) value was computed using a set of 32 replicate wells per screening plate. […]
The collection of biologically active molecules was compiled from the LOPAC library (Sigma Aldrich) and Bioactive Compound Library (Selleck Chemicals). […] After 40 min of incubation at room temperature (˜23° C.), fluorescence measurements were done using an Enspire plate reader (Perkin Elmer) at an excitation wavelength of 485 nm and emission wavelength of 520 nm. Compound performance from per plate was calculated and normalized accounting for background fluorescence by the following equation: […]
Target sequence in this assay (P13051 1-304 isoform P13051-2): as above

O=C(O)C1=CC(=C(c2ccc(O)c(C(=O)O)c2)c2ccc(O)c(C(=O)O)c2)C=CC1=O [ATA, aurintricarboxylic acid]
reduction of UDG-mediated un-quenching of u-DNA hairpin (human UDG [1]; ATA below 250 nM, fixed DNA substrate, 5-hour time course): unable to significantly compete | UDG activity over time (human UDG [1]; ATA fixed dose of 500 nM, range of uracil DNA hairpin concentrations): persistently diminished UDG activity | UDG-mediated DNA cutting activity (human UDG [2]; ATA 0.46-12.5 μM, UDG 500 pM, DNA 20 nM): diminishes UDG-mediated DNA cutting activity in a dose-dependent manner | IC50 (human UDG [2]; dsDNA oligo with single U:A base pair, gel-based, read-out: average IC50 towards UDG): 700 nM and ~700 nM | IC50 (human UDG [2]; estimated, read-out: IC50, DNA cutting): 700 nM | IC50 (human UDG [3]): 40 nM
